Experimental data: patent US8901305B2, “Aryl lactam kinase inhibitors” (Bristol-Myers Squibb Company, priority 2012, dated 2014)

Biological target: T1, GST-Xa-hAAK1 (Homo sapiens, UniProt Q2M2I8)
T1 construct: made in house
Test: AAK1 kinase assay
Format: biochemical
Conditions: ATP 22 μM, 3 hours at room temperature
Description: The assays were performed in U-bottom 384-well plates. […] The reactions were initiated by the combination of bacterially expressed, GST-Xa-hAAK1 with substrates and test compounds. The reactions were incubated at room temperature for 3 hours and terminated by adding 60 μl of 35 mM EDTA buffer to each sample. The reactions were analyzed on the Caliper LabChip 3000 (Caliper, Hopkinton, Mass.) by electrophoretic separation of the fluorescent substrate and phosphorylated product. […] Compounds were dissolved at 10 mM in dimethylsulfoxide (DMSO) and evaluated at eleven concentrations. IC50 values were derived by non-linear regression analysis.

T1 sequence (Q2M2I8 whole entry): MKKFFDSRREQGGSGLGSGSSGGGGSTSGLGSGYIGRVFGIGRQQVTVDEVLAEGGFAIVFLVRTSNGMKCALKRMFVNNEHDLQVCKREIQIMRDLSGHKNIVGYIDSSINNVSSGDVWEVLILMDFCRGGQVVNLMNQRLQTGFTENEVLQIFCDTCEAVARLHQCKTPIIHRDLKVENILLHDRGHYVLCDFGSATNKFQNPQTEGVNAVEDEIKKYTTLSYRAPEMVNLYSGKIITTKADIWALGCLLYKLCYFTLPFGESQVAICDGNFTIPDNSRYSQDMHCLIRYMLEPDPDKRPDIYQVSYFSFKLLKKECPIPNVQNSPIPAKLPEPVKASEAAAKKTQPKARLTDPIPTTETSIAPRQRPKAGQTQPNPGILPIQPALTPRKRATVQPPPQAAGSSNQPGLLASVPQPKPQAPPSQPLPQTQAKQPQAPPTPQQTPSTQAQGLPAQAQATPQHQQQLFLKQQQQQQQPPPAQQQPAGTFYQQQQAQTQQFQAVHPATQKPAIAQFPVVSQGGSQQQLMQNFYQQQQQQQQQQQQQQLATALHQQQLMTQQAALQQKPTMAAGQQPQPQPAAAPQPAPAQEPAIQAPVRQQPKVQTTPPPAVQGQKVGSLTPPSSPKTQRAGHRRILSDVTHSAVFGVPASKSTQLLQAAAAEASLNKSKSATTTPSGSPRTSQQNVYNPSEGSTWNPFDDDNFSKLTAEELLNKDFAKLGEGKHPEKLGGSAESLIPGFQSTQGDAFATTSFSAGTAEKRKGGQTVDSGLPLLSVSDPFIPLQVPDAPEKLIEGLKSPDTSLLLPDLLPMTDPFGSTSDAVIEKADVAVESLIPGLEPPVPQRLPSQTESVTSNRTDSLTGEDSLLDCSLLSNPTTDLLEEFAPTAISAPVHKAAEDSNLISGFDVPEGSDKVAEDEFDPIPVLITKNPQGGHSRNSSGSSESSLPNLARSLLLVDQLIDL

SMILES | IC50 [µM] | IC50 (given as IC50 range) [µM]
Cc1nccc2c1c(=O)n(C)c1cc(OC[C@@H](N)CC(C)C)c(C(C)O)cc21 (single isomer, unassigned) [Example 30] | 0.0017 | 
Cc1nccc2c1c(=O)n(C)c1cc(OC[C@@H](N)CC(C)C)c(C(C)O)cc21 (single isomer, unassigned) [Example 31] |  | 0.01 to 0.1
Cc1nccc2c1c(=O)n(C)c1cc(OC[C@@](C)(N)CC(C)C)ccc21 (single isomer, unassigned) [Example 38] | 0.013 | 
Cc1nccc2c1c(=O)n(C)c1cc(OC[C@@H](N)CC(C)C(F)(F)F)ccc21 (single isomer, unassigned) [Example 87] |  | 0.001 to 0.01
Cc1nccc2c1c(=O)n(C)c1cc(OCC(N)CC(F)(F)F)ccc21 (single isomer, unassigned) [Example 91] |  | 0.01 to 0.1
Cc1nccc2c1c(=O)n(C)c1cc(OCC(N)CC(F)(F)F)ccc21 (single isomer, unassigned) [Example 92] |  | 0.001 to 0.01
CC(C)C[C@H](N)COc1cc2c(cc1O)c1ccncc1c(=O)n2C [Example 7, (S)-8-(2-amino-4-methylpentyloxy)-9-hydroxy-6-methylbenzo[c][2,7]naphthyridin-5(6H)-one] | 0.011 | 
CC(C)C[C@H](N)COc1ccc2c3ccncc3c(=O)n(C(C)C)c2c1 [Example 8, (S)-8-((2-amino-4-methylpentyl)oxy)-6-isopropylbenzo[c][2,7]naphthyridin-5(6H)-one] |  | 0.01 to 0.1
CC(C)C[C@H](N)COc1ccc2c3ccncc3c(=O)n(Cc3ccccc3)c2c1 [Example 11, (S)-8-((2-amino-4-methylpentyl)oxy)-6-benzylbenzo[c][2,7]naphthyridin-5(6H)-one] | 0.073 | 
COCCn1c(=O)c2cnccc2c2ccc(OC[C@@H](N)CC(C)C)cc21 [Example 12, (S)-8-((2-amino-4-methylpentyl)oxy)-6-(2-methoxyethyl)benzo[c][2,7]naphthyridin-5(6H)-one] | 0.085 | 
CC(C)C[C@H](N)COc1ccc2c3ccncc3c(=O)n(CC3CC3)c2c1 [Example 13, (S)-8-((2-amino-4-methylpentyl)oxy)-6-(cyclopropylmethyl)benzo[c][2,7]naphthyridin-5(6H)-one] |  | 0.01 to 0.1
CC(=O)Nc1cc2c(cn1)c(=O)n(C)c1cc(OC[C@@H](N)CC(C)C)ccc21 [Example 18, (S)—N-(8-(2-amino-4-methylpentyloxy)-6-methyl-5-oxo-5,6-dihydrobenzo[c][2,7]naphthyridin-2-yl)acetamide] |  | 0.1 to 2
Cc1nccc2c1c(=O)n(C)c1cc(OC[C@@H](N)CC3CC3)ccc21 [Example 21, (S)-8-(2-amino-3-cyclopropylpropoxy)-4,6-dimethylbenzo[c][2,7]naphthyridin-5(6H)-one] | 0.023 | 
Cc1nccc2c1c(=O)n(C)c1cc(OC[C@@H](N)CC3CCC3)ccc21 [Example 22, (S)-8-(2-amino-3-cyclobutylpropoxy)-4,6-dimethylbenzo[c][2,7]naphthyridin-5(6H)-one] | 0.012 | 
CC(C)CC(C)(N)COc1ccc2c3ccncc3c(=O)n(C)c2c1 (stereo not drawn) [Example 28, 8-((2-amino-2,4-dimethylpentyl)oxy)-6-methylbenzo[c][2,7]naphthyridin-5(6H)-one] | 0.0011 | 
Cc1nccc2c1c(=O)n(C)c1c(F)c(OCC(C)(N)CC(C)C)ccc21 (stereo not drawn) [Example 29, 8-((2-amino-2,4-dimethylpentyl)oxy)-7-fluoro-4,6-dimethylbenzo[c][2,7]naphthyridin-5(6H)-one] |  | 0.1 to 2
COc1cc2c3ccnc(C)c3c(=O)n(C)c2cc1OCC(C)(N)CC(C)C (stereo not drawn) [Example 34, 8-((2-amino-2,4-dimethylpentyl)oxy)-9-methoxy-4,6-dimethylbenzo[c][2,7]naphthyridin-5(6H)-one] | 0.0059 | 
Cc1nccc2c1c(=O)n(C)c1cc(OC[C@@H](N)CC(C)C)c(C(C)(C)O)cc21 [Example 35, (S)-8-((2-amino-4-methylpentyl)oxy)-9-(2-hydroxypropan-2-yl)-4,6-dimethylbenzo[c][2,7]naphthyridin-5(6H)-one] | 0.114 | 
